Structures are written as SMILES. Numbered stars: 1 amine (or outer) side, 2 acyl side, 3 side chain; on linkers, the order of the positions; unused ones are H or OH. Bridge positions count the residues as written; N and C are the ends. Side chains are listed from the residue outwards. Peptide text beside a SMILES is read from it. * marks the point of attachment. C20 diacid = O=C(O)CCCCCCCCCCCCCCCCCCC(=O)*; γGlu = O=C(O)[C@H](CCC(=O)[*:2])N[*:1]

Data set [1] is described as follows: ASSAY (III) ThT fibrillation assay for physical stability. The format is physicochemical. In outline: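 Formulations with 1 μM ThT, pH adjusted as required, incubated at 37 °C with 960 rpm orbital shaking; fluorescence (ex 444/em 485 nm) read every 20 min. Fibrillation reported as mean ThT fluorescence ± SD of 4–8 replicates at time points; polypeptide concentration measured by reverse-phase HPLC before and after, post-centrifugation.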

In data set [2] the target is T1, human amylin 3(a) receptor (human calcitonin receptor + RAMP-3) in BHK570 cells (Homo sapiens, UniProt O60896+P30988).
T1 construct: expressed in transfected cells
Description: ASSAY (II)a functional assay, human amylin receptor (CRE luciferase). The format is cell-based. In outline:
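BHK cells stably carrying a CRE-luciferase reporter plus calcitonin receptor, or calcitonin receptor with RAMP-3 for the amylin 3(a) receptor, were seeded and kept overnight at 37° C. Compounds were added in assay medium with 10% FBS and 10 mM Hepes, pH 7.4, for 3 hours at 37° C, then luminescence was counted.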

The target in data set [3] is T2, human amylin receptor (membranes from Amylin 3(a)/CRE-luc cells) (Homo sapiens, UniProt O60896+P30988).
T2 construct: expressed in transfected cells
T2 sequence (P30988 25-474): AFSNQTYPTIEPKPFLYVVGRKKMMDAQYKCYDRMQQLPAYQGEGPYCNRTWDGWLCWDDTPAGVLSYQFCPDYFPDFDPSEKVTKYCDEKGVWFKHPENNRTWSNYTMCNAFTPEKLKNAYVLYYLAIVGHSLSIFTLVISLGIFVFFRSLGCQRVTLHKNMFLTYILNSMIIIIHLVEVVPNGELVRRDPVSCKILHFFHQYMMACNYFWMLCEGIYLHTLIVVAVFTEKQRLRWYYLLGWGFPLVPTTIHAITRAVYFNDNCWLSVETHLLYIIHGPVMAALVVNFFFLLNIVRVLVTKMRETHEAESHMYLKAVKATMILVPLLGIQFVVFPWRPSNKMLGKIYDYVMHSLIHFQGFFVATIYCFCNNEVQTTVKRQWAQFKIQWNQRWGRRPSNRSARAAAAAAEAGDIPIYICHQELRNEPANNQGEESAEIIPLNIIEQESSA
T2 sequence (O60896 24-148 partner): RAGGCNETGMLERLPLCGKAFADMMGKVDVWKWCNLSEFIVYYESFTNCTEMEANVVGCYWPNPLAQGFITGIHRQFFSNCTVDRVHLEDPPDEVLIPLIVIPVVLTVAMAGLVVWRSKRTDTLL
Put plainly: ASSAY (V) binding to the human amylin receptor (SPA, 125I-rat amylin).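 Note: competition binding of cell membranes (35 ng/µL) mixed with SPA beads in 384-well plates at 40 µL total volume, read by scintillation counting.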

Where [4] appears, read: hCTR funct. EC50 divided by hAmylin-R funct. EC50.
Setting [5] is: hCTR funct. EC50 over hAmylin-R funct. EC50.
The mark [6] stands for this setting: human functional selectivity: hCTR funct. EC50 / hAmylin-R funct. EC50.
Where [7] appears, read: Table 5, selectivity, hCTR bind IC50 / hAmylin-R bind IC50.
The mark [8] stands for this setting: Table 5a, selectivity, hCTR bind IC50 / hAmylin-R bind IC50.
Where [9] appears, read: Table 5b, selectivity, hCTR bind IC50 / hAmylin-R bind IC50.
[10] abbreviates: Table 5c, selectivity, hCTR bind IC50 / hAmylin-R bind IC50.
The mark [11] stands for this setting: Table 7, human binding selectivity, included for comparison.
The mark [12] stands for this setting: Table 7a (preferred compounds), human binding selectivity, included for comparison.
The mark [13] stands for this setting: ratio of human calcitonin receptor binding IC50 to human amylin receptor binding IC50.

On to `CC[C@H](C)[C@H](NC(=O)[C@H](C)NC(=O)CNC(=O)[C@H](Cc1ccccc1)NC(=O)[C@H](CC(N)=O)NC(=O)[C@@H]1CCCN1C(=O)[C@H](CO)NC(=O)[C@H](CO)NC(=O)[C@H](Cc1c[nH]cn1)NC(=O)[C@H](CCCNC(=N)N)NC(=O)[C@H](CC(C)C)NC(=O)[C@H](Cc1ccccc1)NC(=O)[C@H](C)NC(=O)[C@H](C)NC(=O)[C@H](CC(C)C)NC(=O)[C@H](CCCNC(=N)N)NC(=O)[C@H](CCC(N)=O)NC(=O)[C@@H](NC(=O)[C@H](C)NC(=O)[C@@H]1CSSC[C@H](NC(=O)[C@@H](N)CCCCNC(=O)CC[C@H](NC(=O)CCCCCCCCCCCCCCCCCCC(=O)O)C(=O)O)C(=O)N[C@@H](CC(N)=O)C(=O)N[C@@H]([C@@H](C)O)C(=O)N[C@@H](C)C(=O)N[C@@H]([C@@H](C)O)C(=O)N1)[C@@H](C)O)C(=O)N1CCC[C@H]1C(=O)N[C@@H](CO)C(=O)N[C@@H](CO)C(=O)N[C@H](C(=O)N[C@@H](CC(N)=O)C(=O)N[C@H](C(=O)NCC(=O)N[C@@H](Cc1c[nH]cn1)C(=O)N[C@@H](CC(N)=O)C(=O)N[C@H](C(=O)N[C@@H](Cc1ccc(O)cc1)C(N)=O)[C@@H](C)O)C(C)C)[C@@H](C)O` [Example 93] (H-K([γGlu-C20 diacid])CNTATCATQRLAAFLRHSSPNFGAIPSSTNVGHNTY-NH2; disulfide 2-7; N-terminus assumed), for which the “ThT pH 4.0 lag time (h)” value in data set [1] is listed as 16 h. The “Ratio hCT/hAmylin funct.” value in data set [2] (setting [4]), in data set [2] (setting [5]) and in data set [2] (setting [6]) was 9.7 in each case. For the same molecule, the “Ratio hCT/hAmylin binding” value in data set [3] (setting [7]), in data set [3] (setting [8]), in data set [3] (setting [9]), in data set [3] (setting [10]), in data set [3] (setting [11]) and in data set [3] (setting [12]) was 101.0 throughout. In addition, the “Ratio hCT/hAmylin binding” value in data set [3] (setting [13]) is on record as 101.0.
Regarding `CC[C@H](C)[C@H](NC(=O)[C@H](C)NC(=O)CNC(=O)[C@H](Cc1ccccc1)NC(=O)[C@H](CC(N)=O)NC(=O)[C@@H]1CCCN1C(=O)[C@H](CO)NC(=O)[C@H](CO)NC(=O)[C@H](Cc1c[nH]cn1)NC(=O)[C@H](CCCNC(=N)N)NC(=O)[C@H](CC(C)C)NC(=O)[C@H](Cc1ccccc1)NC(=O)[C@H](CC(N)=O)NC(=O)[C@H](C)NC(=O)[C@H](CC(C)C)NC(=O)[C@H](CCCNC(=N)N)NC(=O)[C@H](CCC(N)=O)NC(=O)[C@@H](NC(=O)[C@H](C)NC(=O)[C@@H]1CSSC[C@H](NC(=O)[C@@H](N)CCCCNC(=O)COCCOCCNC(=O)COCCOCCNC(=O)CC[C@H](NC(=O)CCCCCCCCCCCCCCCCCCC(=O)O)C(=O)O)C(=O)N[C@@H](CC(N)=O)C(=O)N[C@@H]([C@@H](C)O)C(=O)N[C@@H](C)C(=O)N[C@@H]([C@@H](C)O)C(=O)N1)[C@@H](C)O)C(=O)N1CCC[C@H]1C(=O)N[C@@H](CO)C(=O)N[C@@H](CO)C(=O)N[C@H](C(=O)N1CCC[C@H]1C(=O)N[C@H](C(=O)NCC(=O)N[C@@H](CO)C(=O)N[C@@H](CC(N)=O)C(=O)N[C@H](C(=O)N[C@@H](Cc1ccc(O)cc1)C(N)=O)[C@@H](C)O)C(C)C)[C@@H](C)O` [Example 96], the “ThT pH 4.0 lag time (h)” value in data set [1] worked out at 12 h. In addition, the “Ratio hCT/hAmylin funct.” value in data set [2] (setting [4]), in data set [2] (setting [5]) and in data set [2] (setting [6]) was 21.0 in each case. Besides, the “Ratio hCT/hAmylin binding” value in data set [3] (setting [7]), in data set [3] (setting [8]), in data set [3] (setting [9]), in data set [3] (setting [10]), in data set [3] (setting [11]) and in data set [3] (setting [12]) was 79.6 in each case. The “Ratio hCT/hAmylin binding” value in data set [3] (setting [13]) turned out to be 79.6.
On to `CC[C@H](C)[C@H](NC(=O)[C@H](C)NC(=O)CNC(=O)[C@H](Cc1ccccc1)NC(=O)[C@H](CC(N)=O)NC(=O)[C@@H]1CCCN1C(=O)[C@H](CO)NC(=O)[C@H](CO)NC(=O)[C@H](Cc1c[nH]cn1)NC(=O)[C@H](CCCNC(=N)N)NC(=O)[C@H](CC(C)C)NC(=O)[C@H](Cc1ccccc1)NC(=O)[C@H](CC(N)=O)NC(=O)[C@H](C)NC(=O)[C@H](CC(C)C)NC(=O)[C@H](CCCNC(=N)N)NC(=O)[C@H](CCC(N)=O)NC(=O)[C@@H](NC(=O)[C@H](C)NC(=O)[C@@H]1CSSC[C@H](NC(=O)[C@@H](N)CCCCNC(=O)COCCOCCNC(=O)COCCOCCNC(=O)CC[C@H](NC(=O)CCCCCCCCCCCCCCCCCCC(=O)O)C(=O)O)C(=O)N[C@@H](CC(N)=O)C(=O)N[C@@H]([C@@H](C)O)C(=O)N[C@@H](C)C(=O)N[C@@H]([C@@H](C)O)C(=O)N1)[C@@H](C)O)C(=O)N1CCC[C@H]1C(=O)N[C@@H](CO)C(=O)N[C@@H](CO)C(=O)N[C@H](C(=O)N[C@@H](CC(N)=O)C(=O)N[C@H](C(=O)NCC(=O)N[C@@H](Cc1c[nH]cn1)C(=O)N[C@@H](CC(N)=O)C(=O)N[C@H](C(=O)N[C@@H](Cc1ccc(O)cc1)C(N)=O)[C@@H](C)O)C(C)C)[C@@H](C)O` [Example 97], for which the “ThT pH 4.0 lag time (h)” value in data set [1] was 30 h. Also, the “Ratio hCT/hAmylin funct.” value in data set [2] (setting [4]), in data set [2] (setting [5]) and in data set [2] (setting [6]) was 33.0 in each case. Further, the “Ratio hCT/hAmylin binding” value in data set [3] (setting [7]), in data set [3] (setting [8]), in data set [3] (setting [9]), in data set [3] (setting [10]), in data set [3] (setting [11]) and in data set [3] (setting [12]) was 103.7 each time. In addition, the “Ratio hCT/hAmylin binding” value in data set [3] (setting [13]) is reported as 103.7.
As to `CC[C@H](C)[C@H](NC(=O)[C@H](C)NC(=O)CNC(=O)[C@H](Cc1ccccc1)NC(=O)[C@H](CC(N)=O)NC(=O)[C@@H]1CCCN1C(=O)[C@H](CO)NC(=O)[C@H](CO)NC(=O)[C@H](Cc1c[nH]cn1)NC(=O)[C@H](CCCNC(=N)N)NC(=O)[C@H](CC(C)C)NC(=O)[C@H](Cc1ccccc1)NC(=O)[C@H](CC(N)=O)NC(=O)[C@H](C)NC(=O)[C@H](CC(C)C)NC(=O)[C@H](CCCNC(=N)N)NC(=O)[C@H](CCC(N)=O)NC(=O)[C@@H](NC(=O)[C@H](C)NC(=O)[C@@H]1CSSC[C@H](NC(=O)[C@@H](N)CCCCNC(=O)COCCOCCNC(=O)COCCOCCNC(=O)CC[C@H](NC(=O)CCCCCCCCCCCCCCCCCCC(=O)O)C(=O)O)C(=O)N[C@@H](CC(N)=O)C(=O)N[C@@H]([C@@H](C)O)C(=O)N[C@@H](C)C(=O)N[C@@H]([C@@H](C)O)C(=O)N1)[C@@H](C)O)C(=O)N1CCC[C@H]1C(=O)N[C@@H](CO)C(=O)N[C@@H](CO)C(=O)N[C@H](C(=O)N[C@@H](CC(N)=O)C(=O)N[C@H](C(=O)NCC(=O)N1CCC[C@H]1C(=O)N[C@@H](CC(N)=O)C(=O)N[C@H](C(=O)N[C@@H](Cc1ccc(O)cc1)C(N)=O)[C@@H](C)O)C(C)C)[C@@H](C)O` [Example 98], in data set [1], the “ThT pH 4.0 lag time (h)” value is 4 h. Also, the “Ratio hCT/hAmylin funct.” value in data set [2] (setting [4]), in data set [2] (setting [5]) and in data set [2] (setting [6]) was 19.5 in each case. For the same molecule, the “Ratio hCT/hAmylin binding” value in data set [3] (setting [7]), in data set [3] (setting [8]), in data set [3] (setting [9]), in data set [3] (setting [10]), in data set [3] (setting [11]) and in data set [3] (setting [12]) was 74.1 each time. Further, the “Ratio hCT/hAmylin binding” value in data set [3] (setting [13]) was determined as 74.1.

Source of the values: patent publication US9023789B2, “Amylin analogs and pharmaceutical compositions thereof” (Novo Nordisk A/S, priority 2012, dated 2015).
